Values quoted from earlier work, collected in publication PMC2409936, “Phase I and pharmacokinetic study of XR11576, an oral topoisomerase I and II inhibitor, administered on days 1–5 of a 3-weekly cycle in patients with advanced solid tumours” (British Journal of Cancer, 2004).

test system: patients; settings: oral administration; ref Soepenberg et al, 2002; Natelson et al, 1996; Verschraegen et al, 1998; Creemers et al, 1997; Gerrits et al; Mani et al; De Jonge et al, 1999; cited from earlier work

Structure (SMILES) | diarrhoea, share of administered cycles
CC[C@@]1(O)C(=O)OCc2c1cc1n(c2=O)Cc2cc3c(N)cccc3nc2-1 [9-AC] | 24–54%
CC[C@@]1(O)C(=O)OCc2c1cc1n(c2=O)Cc2cc3c([N+](=O)[O-])cccc3nc2-1 [9-nitrocamptothecin] | 24–54%
CC[C@@]1(O)C(=O)OCc2c1cc1n(c2=O)Cc2cc3ccccc3nc2-1 [20-S-camptothecin] | 24–54%
CCc1c2c(nc3ccc(OC(=O)N4CCC(N5CCCCC5)CC4)cc13)-c1cc3c(c(=O)n1C2)COC(=O)[C@]3(O)CC [irinotecan] | 24–54%
CC[C@@]1(O)C(=O)OCc2c1cc1n(c2=O)Cc2cc3c(CN(C)C)c(O)ccc3nc2-1 [topotecan] | 24–54%

same assay, conditions: prolonged oral administration (21 days), not controlled with loperamide; ref Creemers et al, 1997; cited from earlier work

Structure (SMILES) | severe diarrhoea [%]
CC[C@@]1(O)C(=O)OCc2c1cc1n(c2=O)Cc2cc3c(CN(C)C)c(O)ccc3nc2-1 [topotecan] | 22
